# Assays:
# [1] = biological target: T1, Amylin receptor AMY3; CALCR/RAMP3 (Homo sapiens, UniProt O60896+P30988); test: Agonist activity at human AMY3R complex of CTR/RAMP3 expressed in Baby hamster kidney cells incubated for 3 hrs followed by medium replacement without compound measured after 30 mins by luciferase reporter assay; type: functional, cell-based, Baby hamster kidney cell
# T1 sequence (P30988 whole entry): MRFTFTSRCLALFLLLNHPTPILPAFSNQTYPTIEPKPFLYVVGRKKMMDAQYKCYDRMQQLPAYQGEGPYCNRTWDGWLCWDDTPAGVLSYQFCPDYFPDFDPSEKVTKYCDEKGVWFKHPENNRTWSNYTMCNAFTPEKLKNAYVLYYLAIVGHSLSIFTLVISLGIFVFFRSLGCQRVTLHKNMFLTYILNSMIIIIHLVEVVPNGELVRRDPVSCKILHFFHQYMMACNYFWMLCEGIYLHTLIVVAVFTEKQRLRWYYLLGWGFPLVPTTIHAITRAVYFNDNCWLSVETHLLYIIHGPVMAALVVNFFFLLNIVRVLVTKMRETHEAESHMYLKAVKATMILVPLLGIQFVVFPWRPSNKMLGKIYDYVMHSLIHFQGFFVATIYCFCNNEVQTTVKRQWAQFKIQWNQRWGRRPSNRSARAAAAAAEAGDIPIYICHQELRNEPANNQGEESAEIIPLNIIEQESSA
# T1 sequence (O60896 whole entry): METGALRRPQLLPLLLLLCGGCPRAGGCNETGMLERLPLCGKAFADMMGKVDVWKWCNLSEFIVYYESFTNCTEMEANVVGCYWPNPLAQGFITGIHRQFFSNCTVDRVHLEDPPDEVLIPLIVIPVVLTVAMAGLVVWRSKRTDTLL
# [2] = biological target: T2, Calcitonin receptor (Homo sapiens, UniProt P30988); test: Agonist activity at human CTR expressed in Baby hamster kidney cells incubated for 3 hrs followed by medium replacement without compound measured after 30 mins by luciferase reporter assay; type: functional, cell-based, Baby hamster kidney cell
# T2 sequence (P30988 whole entry): T1 sequence (P30988 whole entry)
# [3] = species on record: Homo sapiens; test: Selectivity ratio of EC50 for human CTR expressed in Baby hamster kidney cells to EC50 for human AMY3R complex of CTR/RAMP3 expressed in Baby hamster kidney cells; type: cell-based
# [4] = biological target: T3, Amylin receptor AMY3; CALCR/RAMP3 (Rattus norvegicus, UniProt P32214+Q9JJ73); test: Agonist activity at rat AMY3R complex of CTR/RAMP3 expressed in Baby hamster kidney cells incubated for 3 hrs by cAMP assay; type: functional, cell-based, Baby hamster kidney cell
# T3 sequence (P32214 whole entry): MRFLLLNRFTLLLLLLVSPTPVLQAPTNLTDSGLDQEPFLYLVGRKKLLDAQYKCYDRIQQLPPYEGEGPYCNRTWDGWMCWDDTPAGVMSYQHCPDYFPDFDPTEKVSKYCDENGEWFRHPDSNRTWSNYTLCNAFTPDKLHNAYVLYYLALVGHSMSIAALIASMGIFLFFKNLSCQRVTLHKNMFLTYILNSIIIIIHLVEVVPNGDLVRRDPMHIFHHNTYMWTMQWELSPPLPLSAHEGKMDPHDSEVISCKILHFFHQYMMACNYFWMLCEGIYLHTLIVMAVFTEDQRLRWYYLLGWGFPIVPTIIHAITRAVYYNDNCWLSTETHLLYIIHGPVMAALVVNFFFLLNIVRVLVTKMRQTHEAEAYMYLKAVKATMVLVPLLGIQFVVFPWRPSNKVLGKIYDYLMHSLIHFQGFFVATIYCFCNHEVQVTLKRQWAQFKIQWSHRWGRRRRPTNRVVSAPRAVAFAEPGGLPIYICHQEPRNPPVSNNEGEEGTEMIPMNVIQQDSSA
# T3 sequence (Q9JJ73 whole entry): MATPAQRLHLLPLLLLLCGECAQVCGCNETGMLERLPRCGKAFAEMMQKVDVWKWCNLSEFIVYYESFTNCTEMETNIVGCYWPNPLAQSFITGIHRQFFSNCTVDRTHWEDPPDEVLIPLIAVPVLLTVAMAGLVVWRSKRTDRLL
# [5] = biological target: T4, Calcitonin receptor (Rattus norvegicus, UniProt P32214); test: Agonist activity at rat CTR expressed in Baby hamster kidney cells incubated for 3 hrs by cAMP assay; type: functional, cell-based, Baby hamster kidney cell
# T4 sequence (P32214 whole entry): T3 sequence (P32214 whole entry)
# [6] = species on record: Rattus norvegicus; test: Selectivity ratio of EC50 for rat CTR expressed in Baby hamster kidney cells to EC50 for rat AMY3R complex of CTR/RAMP3 expressed in Baby hamster kidney cells; type: cell-based
# [7] = biological target: T1, Amylin receptor AMY3; CALCR/RAMP3; test: Displacement of 125I-rat amylin from human AMY3R complex of CTR/RAMP3 expressed in Baby hamster kidney cell membrane incubated for 120 mins by SPA method; type: cell membranes
# [8] = biological target: T2, Calcitonin receptor; test: Displacement of 125I-Calcitonin from human CTR expressed in Baby hamster kidney cell membrane incubated for 120 mins by SPA method; type: cell membranes
# [9] = species on record: Homo sapiens; test: Selectivity ratio of IC50 for human CTR expressed in Baby hamster kidney cell membrane to IC50 for human AMY3R complex of CTR/RAMP3 expressed in Baby hamster kidney cell membrane; type: cell-based
# [10] = biological target: T3, Amylin receptor AMY3; CALCR/RAMP3; test: Displacement of 125I-rat amylin from rat AMY3R complex of CTR/RAMP3 expressed in Baby hamster kidney cell membrane incubated for 120 mins by SPA method; type: cell membranes
# [11] = biological target: T4, Calcitonin receptor; test: Displacement of 125I-Calcitonin from rat CTR expressed in Baby hamster kidney cell membrane incubated for 120 mins by SPA method; type: cell membranes
# [12] = species on record: Rattus norvegicus; test: Selectivity ratio of IC50 for rat CTR expressed in Baby hamster kidney cell membrane to IC50 for rat AMY3R complex of CTR/RAMP3 expressed in Baby hamster kidney cell membrane; type: cell-based
# [13] = Solubility of compound at pH 3 incubated overnight by UPLC analysis; type: physicochemical; conditions: buffer
# [14] = Solubility of compound at pH 4 incubated overnight by UPLC analysis; type: physicochemical; conditions: buffer
# [15] = Solubility of compound at pH 5 incubated overnight by UPLC analysis; type: physicochemical; conditions: buffer
# [16] = Solubility of compound at pH 6 incubated overnight by UPLC analysis; type: physicochemical; conditions: buffer
# [17] = Solubility of compound at pH 6.5 incubated overnight by UPLC analysis; type: physicochemical; conditions: buffer
# [18] = Solubility of compound at pH 7 incubated overnight by UPLC analysis; type: physicochemical; conditions: buffer
# [19] = Solubility of compound at pH 7.5 incubated overnight by UPLC analysis; type: physicochemical; conditions: buffer
# [20] = Solubility of compound at pH 8 incubated overnight by UPLC analysis; type: physicochemical; conditions: buffer
# [21] = Stability against amyloid fibril formation at pH 7.5 assessed as lag time at 1 uM measured after 45 hrs by ThT assay; type: physicochemical; conditions: pH 7.5, 45 h
# [22] = Stability against amyloid fibril formation at pH 7.5 assessed as compound recovery at 1 uM measured after 45 hrs by ThT assay; type: physicochemical; conditions: pH 7.5, 45 h
# [23] = system: Rattus norvegicus; test: Appetite suppressing activity in rat assessed as reduction in food intake at 30 nmol/kg, sc measured upto 24 hrs relative to control; type: functional; design: scale not given: the % may be the effect or the level left
# [24] = system: Rattus norvegicus; test: Appetite suppressing activity in rat assessed as reduction in food intake at 30 nmol/kg, sc measured for 24 to 48 hrs relative to control; type: functional; design: scale not given: the % may be the effect or the level left; conditions: time 24-48 hrs
# [25] = biological target: T2, Calcitonin receptor; test: Agonist activity at human CTR transduced in human HeLa cells by cAMP assay; type: functional, cell-based; conditions: hela
# [26] = biological target: Amylin receptor AMY1, CALCR/RAMP1 (Homo sapiens, UniProt P30988+O60894); test: Agonist activity at human AMY1R complex of CTR/RAMP1 transduced in human HeLa cells by cAMP assay; type: functional, cell-based; conditions: hela
# Chain of Amylin receptor AMY1, CALCR/RAMP1 (O60894 whole entry, one chain of several): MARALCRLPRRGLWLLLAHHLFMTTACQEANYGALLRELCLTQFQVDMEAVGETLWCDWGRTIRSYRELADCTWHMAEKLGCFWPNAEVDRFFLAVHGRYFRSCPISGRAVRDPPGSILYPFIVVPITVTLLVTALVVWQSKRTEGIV
# [27] = biological target: Amylin receptor AMY2; CALCR/RAMP2 (Homo sapiens, UniProt P30988+O60895); test: Agonist activity at human AMY2R complex of CTR/RAMP2 transduced in human HeLa cells by cAMP assay; type: functional, cell-based; conditions: hela
# Chain of Amylin receptor AMY2; CALCR/RAMP2 (O60895 whole entry, one chain of several): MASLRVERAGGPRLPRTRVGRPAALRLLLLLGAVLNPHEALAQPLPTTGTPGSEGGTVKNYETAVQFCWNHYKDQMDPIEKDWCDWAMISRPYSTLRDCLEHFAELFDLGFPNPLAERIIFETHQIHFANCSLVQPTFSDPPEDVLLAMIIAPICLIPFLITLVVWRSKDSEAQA
# [28] = biological target: T5, Amylin receptor AMY3; CALCR/RAMP3 (Homo sapiens, UniProt P30988+O60896); test: Agonist activity at human AMY3R complex of CTR/RAMP3 transduced in human HeLa cells by cAMP assay; type: functional, cell-based
# T5 sequence (P30988 whole entry): T1 sequence (P30988 whole entry)
# T5 sequence (O60896 whole entry): T1 sequence (O60896 whole entry)
# [29] = biological target: Calcitonin-gene-related peptide receptor, CALCRL/RAMP1 (Homo sapiens, UniProt O60894+Q16602); test: Agonist activity at human CGRPR complex of CRLR/RAMP1 transduced in human HeLa cells by cAMP assay; type: functional, cell-based; conditions: hela
# Chain of Calcitonin-gene-related peptide receptor, CALCRL/RAMP1 (O60894 whole entry): as the sequence (O60894 whole entry, one chain of several) above
# Chain of Calcitonin-gene-related peptide receptor, CALCRL/RAMP1 (Q16602 whole entry): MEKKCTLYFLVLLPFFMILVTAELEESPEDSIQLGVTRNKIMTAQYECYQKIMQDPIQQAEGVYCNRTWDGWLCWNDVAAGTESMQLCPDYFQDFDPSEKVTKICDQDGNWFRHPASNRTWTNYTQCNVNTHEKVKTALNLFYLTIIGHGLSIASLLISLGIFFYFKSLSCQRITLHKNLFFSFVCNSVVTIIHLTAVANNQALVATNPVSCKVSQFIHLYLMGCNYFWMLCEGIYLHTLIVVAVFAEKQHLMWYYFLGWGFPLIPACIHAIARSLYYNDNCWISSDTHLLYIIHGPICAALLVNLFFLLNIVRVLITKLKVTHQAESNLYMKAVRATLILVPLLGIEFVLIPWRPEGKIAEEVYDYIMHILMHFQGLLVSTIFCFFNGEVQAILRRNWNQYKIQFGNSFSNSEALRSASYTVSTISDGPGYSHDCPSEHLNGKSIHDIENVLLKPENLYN
# [30] = biological target: Adrenomedullin receptor, AM2; CALCRL/RAMP3 (Homo sapiens, UniProt Q16602+O60896); test: Agonist activity at human AM2R complex of CRLR/RAMP3 transduced in human HeLa cells by cAMP assay; type: functional, cell-based
# Chain of Adrenomedullin receptor, AM2; CALCRL/RAMP3 (Q16602 whole entry, one chain of several): as the sequence (Q16602 whole entry) above
compound,measurement,setting,value
CC[C@H](C)[C@H](NC(=O)[C@H](C)NC(=O)CNC(=O)[C@H](Cc1ccccc1)NC(=O)[C@H](CC(N)=O)NC(=O)[C@@H]1CCCN1C(=O)[C@H](CO)NC(=O)[C@H](CO)NC(=O)[C@H](Cc1c[nH]cn1)NC(=O)[C@H](CCCNC(=N)N)NC(=O)[C@H](CC(C)C)NC(=O)[C@H](Cc1ccccc1)NC(=O)[C@H](CC(N)=O)NC(=O)[C@H](C)NC(=O)[C@H](CC(C)C)NC(=O)[C@H](CCCNC(=N)N)NC(=O)[C@H](CCC(N)=O)NC(=O)[C@@H](NC(=O)[C@H](C)NC(=O)[C@@H]1CSSC[C@H](NC(=O)[C@@H](N)CCCCN)C(=O)N[C@@H](CC(N)=O)C(=O)N[C@@H]([C@@H](C)O)C(=O)N[C@@H](C)C(=O)N[C@@H]([C@@H](C)O)C(=O)N1)[C@@H](C)O)C(=O)N1CCC[C@H]1C(=O)N[C@@H](CO)C(=O)N[C@@H](CO)C(=O)N[C@H](C(=O)N[C@@H](CC(N)=O)C(=O)N[C@H](C(=O)NCC(=O)N[C@@H](CO)C(=O)N[C@@H](CC(N)=O)C(=O)N[C@H](C(=O)N[C@@H](Cc1ccc(O)cc1)C(N)=O)[C@@H](C)O)C(C)C)[C@@H](C)O,EC50,[1],0.432 nM
same,EC50,[2],10 nM
same,Ratio EC50,[3],23
same,EC50,[4],1.79 nM
same,EC50,[5],142 nM
same,Ratio EC50,[6],79
same,IC50,[7],1.14 nM
same,IC50,[8],102 nM
same,Ratio IC50,[9],90
same,IC50,[10],3.01 nM
same,IC50,[11],350 nM
same,Ratio IC50,[12],116
same,solubility,[13],≥ 200 µM
same,solubility,[14],≥ 200 µM
same,solubility,[15],≥ 200 µM
same,solubility,[16],≥ 200 µM
same,solubility,[17],≥ 200 µM
same,solubility,[18],≥ 200 µM
same,solubility,[19],≥ 200 µM
same,solubility,[20],≥ 200 µM
same,Time,[21],34 h
same,Drug recovery,[22],0%
same,Activity,[23],22%
same,Activity,[24],1%
CAGRILINTIDE,pEC50,[25],10.64
same,pEC50,[26],10.73
same,pEC50,[27],10.37
same,pEC50,[28],10.33
same,pEC50,[29],6.25
same,pEC50,[30],6.12
